Literature values, collected in patent publication US20090215818A1, “THIOZOLIDINEDIONE DERIVATIVES AS PI3 KINASE INHIBITORS” (SmithKline Beecham Corporation, priority 2006, published 2009).
Where two headings read alike, the source gives them in different places.

What was measured:
Class I PI3-kinases = settings: each of the Class I PI3-kinases
CK2 protein kinase = CK2 protein kinase (Homo sapiens, UniProt P68400)
Sequence of CK2 protein kinase (P68400 whole entry): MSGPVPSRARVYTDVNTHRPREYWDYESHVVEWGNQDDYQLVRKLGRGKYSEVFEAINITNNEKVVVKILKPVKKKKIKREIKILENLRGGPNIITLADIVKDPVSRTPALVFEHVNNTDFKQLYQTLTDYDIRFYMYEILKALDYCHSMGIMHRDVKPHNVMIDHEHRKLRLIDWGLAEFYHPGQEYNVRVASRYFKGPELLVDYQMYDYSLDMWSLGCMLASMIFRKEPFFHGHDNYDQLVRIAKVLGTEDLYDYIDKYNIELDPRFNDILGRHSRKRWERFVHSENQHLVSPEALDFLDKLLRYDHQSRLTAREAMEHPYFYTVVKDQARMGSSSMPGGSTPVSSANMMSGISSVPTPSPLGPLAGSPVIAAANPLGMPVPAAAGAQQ

Row | Molecule | IC50 (Class I PI3-kinases; Fruman et al. 1998, read-out: IC50 against each of these PI3-kinases) | IC50 (CK2 protein kinase) | IC50 (Class I PI3-kinases; read-out: IC50 against each of the various Class I PI3-kinases)
1 | O=c1cc(N2CCOCC2)oc2c(-c3ccccc3)cccc12 [LY294002] | 15 to 20 µM | 5 to 10 µM | 
2 | wortmannin |  |  | 0.001 to 0.01 µM
